Laboratory results from PMC7413254 (Nature Communications, 2020).
Like-named read-outs stand apart in the source and are kept apart here.

Tests used:
non-expressing oocytes [1] = test: cells; assay type: cell-based, Xenopus laevis; conditions: Xenopus laevis, total [3H]CQ transport; for inhibition at 500 µM: [test solute] = 0.5 mM; for inhibition at 1000 µM: [test solute] = 1 mM; for inhibition at 2000 µM: [test solute] = 2 mM
Method in brief: (§1)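 Each treatment used ten oocytes, repeated in at least four experiments on different days with oocytes from different frogs. Conditions: ND96 pH 5.5, 27.5 °C, 1.5 h; read-out by scintillation counting.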

PfCRT^3D7 [2] = biological target: T1, PfCRT^3D7 (Plasmodium falciparum, UniProt Q8IBZ9); test: cell-based; assay type: cell-based; conditions: total [3H]CQ transport; for inhibition at 500 µM: [test solute] = 0.5 mM; for inhibition at 1000 µM: [test solute] = 1 mM; for inhibition at 2000 µM: [test solute] = 2 mM
Method in brief: as §1

PfCRT^Dd2 [3] = biological target: T2, PfCRT^Dd2 (Plasmodium falciparum, UniProt Q9N623, A220S/I356T/K76T/M74I/N326S/N75E/Q271E/R371I); test: [3H]CQ uptake into Xenopus oocytes, cis-inhibition by unlabelled solute; assay type: cell-based
Method in brief: as §1

PfCRT^Ecu1110 [4] = biological target: T3, PfCRT^Ecu1110 (Plasmodium falciparum, UniProt Q9N623, A220S/I356L/K76T/N326D); test: as above; assay type: cell-based
Method in brief: as §1

non-expressing oocytes [5] = assay type: cell-based, Xenopus laevis; conditions: total [3H]CQ transport; for Uptake of [3H]CQ (% non-expressing oocyte control), trans-stimulation: non-expressing oocytes, normalised to the oocyte type control; for Uptake of [3H]CQ (% PfCRTDd2 control), trans-stimulation, non-expressing oocytes: mean ± SEM, SEM
Method in brief: (§2)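 Oocytes (ten per treatment, ≥4 independent frogs/days) were preloaded by injecting VF-6 in 25 nL ND96 at pH 5.0, 5.5, 6.0 or 7.0, or Na^+-free choline buffer, then uptake run 1.5 h, 27.5 °C, ND96 pH 5.5 by default. Internal concentrations assumed ~400 nL oocyte volume.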

PfCRT^3D7 [6] = biological target: T1, PfCRT^3D7; test: cell-based; assay type: cell-based
Method in brief: as §2

PfCRT^Dd2 [7] = biological target: T2, PfCRT^Dd2; test: cell-based; assay type: cell-based; conditions: […]
Method in brief: as §2

PfCRT^Ecu1110 [8] = biological target: T3, PfCRT^Ecu1110; test: cell-based; assay type: cell-based; conditions: […]
Method in brief: as §2

PfNT1 = biological target: T4, PfNT1 (Plasmodium falciparum, UniProt Q8IDM6); test: cell-based; assay type: cell-based; conditions: for activity at 5000 µM: total [3H]CQ transport
T4 construct: expressed in transfected cells; host or cells: Xenopus laevis oocytes (stage V-VI), cRNA-injected
Method in brief: as §2

PfCRT [9] = test: Influx of VF-6 via PfCRT into the oocyte, solutes tested as potential co-substrates; assay type: cell-based, Plasmodium falciparum; design: key: X: Compounds that have been tested as potential co-substrates but are not required for influx of VF-6 via PfCRT into the oocyte; conditions: X marks the solute
PfCRT [10] = test: Potential co-substrates tested for influx of VF-6 via PfCRT into the oocyte; assay type: cell-based, Plasmodium falciparum; design: key: X: Compounds that have been tested as potential co-substrates but are not required for influx of VF-6 via PfCRT into the oocyte
[11] = Oocyte, mean ± SEM, SEM, read-out: Uptake of [3H]CQ (% PfCRTDd2 control), cis-inhibition, non-expressing oocytes
[12] = non-expressing oocytes, normalised to the oocyte type control, read-out: Uptake of [3H]CQ (% non-expressing oocyte control), cis-inhibition
[13] = PfCRT3D7 oocytes, normalised to the oocyte type control, read-out: Uptake of [3H]CQ (% PfCRT3D7 control), cis-inhibition
[14] = mean ± SEM, SEM, read-out: Uptake of [3H]CQ (% PfCRTDd2 control), cis-inhibition, PfCRT3D7
[15] = read-out: PfCRT-mediated [3H]CQ transport, cis-inhibition (% PfCRTDd2 control)
[16] = read-out: Uptake of [3H]CQ (% PfCRTDd2 control), cis-inhibition, PfCRTDd2, SEM
[17] = read-out: PfCRT-mediated [3H]CQ transport, cis-inhibition (% PfCRTEcu1110 control)
[18] = read-out: Uptake of [3H]CQ (% PfCRTDd2 control), cis-inhibition, PfCRTEcu1110, SEM
[19] = read-out: Uptake of [3H]CQ (% PfCRTEcu1110 control), cis-inhibition
[20] = read-out: [3H]CQ transport (% PfCRTEcu1110 control), cis-inhibition, PfCRTEcu1110, SEM

T4 sequence (Q8IDM6 whole entry): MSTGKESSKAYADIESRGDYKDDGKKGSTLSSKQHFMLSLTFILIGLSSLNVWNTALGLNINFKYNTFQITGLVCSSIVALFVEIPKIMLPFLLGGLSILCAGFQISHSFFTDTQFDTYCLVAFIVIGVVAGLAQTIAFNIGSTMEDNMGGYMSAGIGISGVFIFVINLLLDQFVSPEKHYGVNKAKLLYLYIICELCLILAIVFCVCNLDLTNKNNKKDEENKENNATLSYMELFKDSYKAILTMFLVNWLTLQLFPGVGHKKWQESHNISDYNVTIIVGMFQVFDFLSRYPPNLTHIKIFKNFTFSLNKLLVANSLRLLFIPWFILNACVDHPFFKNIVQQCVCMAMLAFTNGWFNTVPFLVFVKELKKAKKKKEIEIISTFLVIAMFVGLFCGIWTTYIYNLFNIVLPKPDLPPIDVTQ
T2 sequence (Q9N623 whole entry A220S/I356T/K76T/M74I/N326S/N75E/Q271E/R371I): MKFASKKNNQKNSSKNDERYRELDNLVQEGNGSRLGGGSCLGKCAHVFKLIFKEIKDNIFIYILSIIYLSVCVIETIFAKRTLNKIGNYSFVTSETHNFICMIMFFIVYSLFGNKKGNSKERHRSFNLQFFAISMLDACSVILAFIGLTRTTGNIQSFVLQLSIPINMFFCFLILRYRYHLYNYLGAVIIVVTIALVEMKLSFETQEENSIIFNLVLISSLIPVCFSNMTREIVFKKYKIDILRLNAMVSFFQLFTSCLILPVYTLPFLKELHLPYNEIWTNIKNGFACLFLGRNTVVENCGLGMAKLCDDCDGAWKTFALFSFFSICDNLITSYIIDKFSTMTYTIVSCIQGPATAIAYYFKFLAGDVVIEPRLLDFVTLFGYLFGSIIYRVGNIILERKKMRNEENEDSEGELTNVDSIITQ
T3 sequence (Q9N623 whole entry A220S/I356L/K76T/N326D): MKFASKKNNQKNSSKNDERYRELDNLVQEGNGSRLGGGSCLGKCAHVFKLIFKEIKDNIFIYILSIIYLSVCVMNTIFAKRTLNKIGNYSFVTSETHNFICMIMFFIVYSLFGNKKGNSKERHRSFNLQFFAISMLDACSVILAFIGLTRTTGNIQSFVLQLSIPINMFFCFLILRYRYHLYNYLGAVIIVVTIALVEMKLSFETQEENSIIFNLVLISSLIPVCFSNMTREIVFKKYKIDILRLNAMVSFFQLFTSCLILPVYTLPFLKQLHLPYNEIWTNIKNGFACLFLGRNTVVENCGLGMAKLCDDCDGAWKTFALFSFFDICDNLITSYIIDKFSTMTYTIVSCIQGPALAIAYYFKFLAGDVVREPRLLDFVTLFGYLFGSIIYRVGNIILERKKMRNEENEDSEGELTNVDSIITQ
T1 sequence (Q8IBZ9 59-398): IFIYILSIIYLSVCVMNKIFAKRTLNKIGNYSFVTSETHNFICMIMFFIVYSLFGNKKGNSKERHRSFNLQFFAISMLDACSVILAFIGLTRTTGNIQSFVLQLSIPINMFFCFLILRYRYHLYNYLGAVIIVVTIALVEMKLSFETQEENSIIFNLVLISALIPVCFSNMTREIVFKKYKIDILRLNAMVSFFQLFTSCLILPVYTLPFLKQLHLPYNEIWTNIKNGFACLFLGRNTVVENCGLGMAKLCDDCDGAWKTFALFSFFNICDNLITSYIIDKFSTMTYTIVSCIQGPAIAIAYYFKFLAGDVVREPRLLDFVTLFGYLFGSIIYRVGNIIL

## N[C@@H](Cc1c[nH]cn1)C(=O)O [L-histidine]
non-expressing oocytes [1]; [11]
  inhibition at 500 µM: 2.4 ± 0.06%
  inhibition at 1000 µM: 2.8 ± 0.07%
  inhibition at 2000 µM: 2.6 ± 0.05%
non-expressing oocytes [1]; [12]
  inhibition at 500 µM: 96 ± 4.3%
  inhibition at 1000 µM: 99 ± 3.7%
  inhibition at 2000 µM: 99 ± 4.7%
PfCRT^3D7 [2]; [13]
  inhibition at 500 µM: 99 ± 5.2%
  inhibition at 1000 µM: 99 ± 3.6%
  inhibition at 2000 µM: 101 ± 4.7%
PfCRT^3D7 [2]; [14]
  inhibition at 500 µM: 3.7 ± 0.02%
  inhibition at 1000 µM: 2.8 ± 0.02%
  inhibition at 2000 µM: 2.8 ± 0.03%
PfCRT^Dd2 [3]; [15]
  inhibition at 500 µM: 96 ± 3.6%
  inhibition at 1000 µM: 97 ± 4.1%
PfCRT^Dd2 [3]; [16]
  inhibition at 500 µM: 98 ± 9.7%
  inhibition at 1000 µM: 99 ± 4.2%
  inhibition at 2000 µM: 100 ± 2.2%
PfCRT^Ecu1110 [4]; [17]
  inhibition at 500 µM: 95 ± 1.5%
  inhibition at 1000 µM: 94 ± 3.2%
  inhibition at 2000 µM: 98 ± 2.6%
PfCRT^Ecu1110 [4]; [18]
  inhibition at 500 µM: 32 ± 1.4%
  inhibition at 1000 µM: 31 ± 2.1%
  inhibition at 2000 µM: 33 ± 1%
PfCRT^Ecu1110 [4]; [19]
  inhibition at 500 µM: 97 ± 5.6%
  inhibition at 1000 µM: 96 ± 4.6%
  inhibition at 2000 µM: 100 ± 8.2%
PfCRT^Ecu1110 [4]; [20]
  inhibition at 500 µM: 29 ± 0.4%
  inhibition at 1000 µM: 28 ± 0.2%
  inhibition at 2000 µM: 30 ± 1.3%
non-expressing oocytes [5]; [test solute]i = 5 mM
  Uptake of [3H]CQ (% non-expressing oocyte control), trans-stimulation: 99 ± 3.6 % non-expressing oocyte control
non-expressing oocytes [5]; [test solute]i = 45 mM (30 mM for some solutes due to solubility)
  Uptake of [3H]CQ (% non-expressing oocyte control), trans-stimulation: 100 ± 4.8 % non-expressing oocyte control
non-expressing oocytes [5]; [test solute]i = 5 mM (intracellular)
  Uptake of [3H]CQ (% PfCRTDd2 control), trans-stimulation, non-expressing oocytes: 3.0 ± 0.06 % PfCRTDd2 control
non-expressing oocytes [5]; [test solute]i = 45 mM (intracellular; 30 mM for some solutes due to solubility)
  Uptake of [3H]CQ (% PfCRTDd2 control), trans-stimulation, non-expressing oocytes: 2.5 ± 0.01 % PfCRTDd2 control
PfCRT^3D7 [6]; PfCRT3D7 oocytes, [test solute]i = 5 mM, total [3H]CQ transport, normalised to the oocyte type control, read-out: Uptake of [3H]CQ (% PfCRT3D7 control), trans-stimulation
  activity at 5000 µM: 97 ± 3.6%
PfCRT^3D7 [6]; SEM
  [3H]CQ transport (% PfCRT3D7 control), trans-stimulation, PfCRT3D7: 0.2 ± 0.01 % PfCRT3D7 control
PfCRT^3D7 [6]; [test solute]i = 5 mM (intracellular), PfCRT3D7 oocytes, normalised to oocyte type control, read-out: PfCRT-mediated [3H]CQ transport, trans-stimulation (% PfCRT3D7 control)
  activity at 5000 µM: 95 ± 2.9%
PfCRT^3D7 [6]; SEM, read-out: Uptake of [3H]CQ (% PfCRTDd2 control), trans-stimulation, PfCRT3D7
  activity at 45000 µM: 3.3 ± 0.02%
PfCRT^3D7 [6]; read-out: PfCRT-mediated [3H]CQ transport, trans-stimulation (% PfCRT3D7 control)
  activity at 45000 µM: 97 ± 2.2%
PfCRT^3D7 [6]; read-out: Uptake of [3H]CQ (% PfCRT3D7 control), trans-stimulation
  activity at 45000 µM: 99 ± 3.7%
PfCRT^3D7 [6]; total [3H]CQ transport, [test solute]i = 5 mM (intracellular), mean ± SEM, SEM, read-out: Uptake of [3H]CQ (% PfCRTDd2 control), trans-stimulation, PfCRT3D7
  activity at 5000 µM: 3.2 ± 0.09%
PfCRT^Dd2 [7]; pH 5.5, read-out: Uptake of [3H]CQ (% PfCRTDd2 control), trans-stimulation, PfCRTDd2, total [3H]CQ transport, [test solute]i = 5 mM (intracellular), mean ± SEM, SEM
  activity at 5000 µM: 101 ± 2.2%
PfCRT^Dd2 [7]; pH 5.5, read-out: Uptake of [3H]CQ (% PfCRTDd2 control), trans-stimulation, PfCRTDd2 oocytes, [test solute]i = 5 mM, total [3H]CQ transport, normalised to the oocyte type control
  activity at 5000 µM: 101 ± 2.2%
PfCRT^Dd2 [7]; pH 5.5, read-out: Uptake of [3H]CQ (% PfCRTDd2 control), trans-stimulation, PfCRTDd2 oocytes, [test solute]i = 45 mM (30 mM for some solutes due to solubility), total [3H]CQ transport, normalised to the oocyte type control
  activity at 45000 µM: 97 ± 3.2%
PfCRT^Ecu1110 [8]; pH 5.5, read-out: Uptake of [3H]CQ (% PfCRTEcu1110 control), trans-stimulation, PfCRTEcu1110 oocytes, [test solute]i = 5 mM, total [3H]CQ transport, normalised to the oocyte type control
  activity at 5000 µM: 100 ± 3.6%
PfCRT^Ecu1110 [8]; pH 5.5, read-out: Uptake of [3H]CQ (% PfCRTEcu1110 control), trans-stimulation, PfCRTEcu1110 oocytes, [test solute]i = 45 mM (30 mM for some solutes due to solubility), total [3H]CQ transport, normalised to the oocyte type control
  activity at 45000 µM: 99 ± 3%
PfCRT^Ecu1110 [8]; read-out: Uptake of [3H]CQ (% PfCRTDd2 control), trans-stimulation, PfCRTEcu1110, total [3H]CQ transport, [test solute]i = 5 mM (intracellular), mean ± SEM, SEM
  activity at 5000 µM: 36 ± 1.3%
PfCRT^Ecu1110 [8]; read-out: Uptake of [3H]CQ (% PfCRTDd2 control), trans-stimulation, PfCRTEcu1110, total [3H]CQ transport, [test solute]i = 45 mM (intracellular; 30 mM for some solutes due to solubility), mean ± SEM, SEM
  activity at 45000 µM: 35 ± 2.5%
PfNT1; PfNT1 oocytes, [test solute]i = 5 mM, normalised to the oocyte type control, read-out: Uptake of [3H]CQ (% PfNT1 control), trans-stimulation
  activity at 5000 µM: 99 ± 3.3%
PfNT1; SEM, read-out: Uptake of [3H]CQ (% PfCRTDd2 control), trans-stimulation, PfNT1
  activity at 45000 µM: 2.6 ± 0.04%
PfNT1; read-out: Uptake of [3H]CQ (% PfNT1 control), trans-stimulation
  activity at 45000 µM: 99 ± 4.2%
PfNT1; [test solute]i = 5 mM (intracellular), mean ± SEM, SEM, read-out: Uptake of [3H]CQ (% PfCRTDd2 control), trans-stimulation, PfNT1
  activity at 5000 µM: 2.2 ± 0.09%
PfCRT [9]
  Compounds that have been tested as potential co-substrates but are not required for influx of VF-6 via PfCRT into the oocyte: X
PfCRT [10]
  Tested as potential co-substrate but not required for influx of VF-6 via PfCRT into the oocyte: X
